“And” between values parts separate entries of the source, which are not always exact repeats. Equal entries are not always repeated. “Also recorded” adds a separate entry of the source.
Legend:
[1] = tested on: Gram negative bacteria (Salmonella isolates); test: Biofilm formation in polystyrene microtiter plates (crystal violet, OD595), Gram negative bacteria; assay type: cell-based, Salmonella ser. Typhimurium, Salmonella ser. Agona; conditions: two days at 20 °C
Procedure: (§1) All experiments were performed by using sterile 96-wells polystyrene microtiter plates (Nunc, Nuncleon, Roskilde, Denmark) under conditions promoting biofilm formation by the different bacterial genera. The Inhibio compound preparations of the invention; 1,3-cyclohexanedione, 1,4-cyclohexanedione, cyclopentanone, 5-ethylcyclohexane-1,3-dione and 5-methyl-1,3 cyclohexanedione 98% were solved directly in Tryptic Soy Broth (TSB) 1+1 or Liquid Microbiology Broth (LB) broth without NaCl (LB^wo/NaCl) to obtain the test concentrations, i.e. from 1 mg/ml to 10 mg/ml.
(§2) One Salmonella ser. Typhimurium (S. Typhimurium), two Salmonella ser. Agona (S. Agona) and two Escherichia coli (E. coli) isolates were used in these studies. The studies performed using 1,3-cyclohexanedione and 1,4-cyclohexanedione were done on Salmonella isolates only. The studies comparing Menthone to 1,3-cyclohexanedione were using two E. coli strains, E. coli 1242 and E. coli 1153, see FIG. 11. The Salmonella isolates were isolated from Norwegian feed factories except one S. Typhimurium strain which was a culture collection strain (ATCC 14028). The E. coli isolates were of animal origin. All strains were stored at −80° C. in BHI supplemented with 15% glycerine and were recovered on blood agar at 37.0±1.0° C. The bacterial cultures were then transferred into LB broth and incubated statically overnight at 37.0±1.0° C. to obtain an overnight working culture. A total of 30 μl of this suspension was transferred to each well in 96 wells polystyrene microtiter plates (Nunc, Nuncleon, Roskilde, Denmark) in triplets. The wells were containing 100 μl LB^wo/NaCl (bacto-tryptone 10 g/l, yeast extract 5 g/l) with 1,3-cyclohexanedione dissolved in concentration 0 mg/ml, 1 mg/ml and 10 mg/ml in the total amount of broth and 1,4-cyclohexanedione and cyclopentanone at 0 mg/ml and 10 mg/ml. The microtiter plates were incubated statically for two days, at 20±1.0° C. After incubation, OD595 was measured before the plates were gently washed one time with 150 μl tap water. The plates were dried in room temperature before addition of 140 μl 1% crystal violet (Sigma-Aldrich). After 30 minutes incubation in room temperature, the plates were washed three times with tap water before addition of 140 μl ethanol:acetone (70:30 w:w) and incubated for another 10 minutes in room temperature. OD595 was measured in a microplate photometer (Multiscan EX) after the bound dye was dissolved using ethanol:acetone. For each strain, the result was calculated by subtracting the median OD595 of the three parallels of the control (test broth only) from the median OD595 of the three parallels of sample. Further, the averages of the Gram negative strains were calculated. Three independent experiments were performed and the average was evaluated.

[2] = tested on: E. coli 1242 and E. coli 1153; test: Biofilm formation in microtiter plates, comparison of 1,3-cyclohexanedione and menthone; assay type: cell-based, Escherichia coli; conditions: two values, one per strain (E. coli 1242, E. coli 1153)
Procedure: as §1
as §2, with “A total of 30 μl of this suspension was transferred to each well in 96 wells polystyrene microtiter plates (Nunc, Nuncleon, Roskilde, Denmark) in triplets. The wells were containing 100 μl LB^wo/NaCl (bacto-tryptone 10 g/l, yeast extract 5 g/l) with 1,3-cyclohexanedione dissolved in concentration 0 mg/ml, 1 mg/ml and 10 mg/ml in the total amount of broth and 1,4-cyclohexanedione and cyclopentanone at 0 mg/ml and 10 mg/ml. The microtiter plates were incubated statically for two days, at 20±1.0° C.” left out, “The plates were dried in room temperature before addition of 140 μl 1% crystal violet (Sigma-Aldrich). After 30 minutes incubation in room temperature, the plates were washed three times with tap water before addition of 140 μl ethanol:acetone (70:30 w:w) and incubated for another 10 minutes in room temperature.” left out

[3] = tested on: Listeria monocytogenes (six strains); test: Biofilm formation in microtiter plates, Listeria; assay type: cell-based; conditions: 24 hours at 35 °C
Procedure: Six strains of Listeria monocytogenes were used in this study isolated from food research. The strains were recovered in 200 μl TSB broth in a microtiter plate and incubated at 37° C. for 24 hours. A total of 5 μl of the bacterial suspension was transferred to a 96 wells polystyrene microtiter plate (Thermo scientific Nucleon Delta surface) together with 200 μl medium (LB^wo/NaCl) with 1,3-cyclohexanedione (dissolved to 0,625 mg/ml, 2.5 mg/ml, 5 mg/ml and 10 mg/ml) to each well. Each strain was added in duplex and incubated at 35° C. for 24 hours. After incubation, OD595 was measured before the plates were gently washed one time with 200 μl tap water. This was repeated once. The plates were dried in room temperature before addition of 200 μl 0, 1% crystal violet (Sigma-Aldrich). After 30 minutes incubation in room temperature, the plates were washed twice with 200 μl tap water and once with 240 μl. This was followed by the addition of 200 μl ethanol:acetone (70:30 w:w) and incubated for another 10 minutes in room temperature. OD595 was measured in a microplate photometer (Multiscan EX) after the bound dye was dissolved using ethanol:acetone. For each strain, the result was calculated by subtracting the average OD595 of the two parallels of the control (test broth only) from the average OD595 of the two parallels of sample. Three independent experiments were performed. The average of the 6 strains as well as the average between the experiments was calculated.

[4] = tested on: S. Agona and E. coli (one strain each); test: Biofilm formed on stainless steel coupons by Gram negative bacteria (CFU count); assay type: cell-based, Salmonella ser. Agona, Escherichia coli; conditions: 20 °C for 72 hours
Procedure: One strain of S. Agona (FIG. 10) and one strain of E. coli (FIG. 10) was used in this study. The study was performed using 1,3-cyclohexanedione in a concentration of 1 and 10 mg/ml. The strain was stored at −80° C. in BHI (Difco, BD, Franklin Lakes, N.J., USA) supplemented with 15% glycerine (Merck KGaA, Darmstadt, Germany) and was recovered on blood agar at 37.0±1.0° C. The bacterial culture was then transferred into LB broth and was incubated statically overnight at 37.0±1.0° C. to obtain an overnight working culture. The Inhibio compound was dissolved in LB^wo/NaCl to a concentration of 10 mg/ml and then further diluted to a concentration of 1 mg/ml. 10 ml of each solution was added to a 50 ml Falcon tube and, in a third tube, only LB broth^wo/NaCl was added as a control. […]
Following incubation, each coupon was dipped three times in three different tubes containing physiological saline and further transferred to a tube containing 5 ml cold physiological saline as well as 20 sterile silica glass beads. […] After incubation, the bacterial colonies were counted. […]
The Colony forming units (CFU) on the plate was calculated into CFU in biofilm by multiplying with a factor for each dilution. Further, the log value was calculated of the average of each dilution.

SMILES: O=C1CCCC(=O)C1 [1,3-cyclohexanedione]
- decrease in biofilm formation, percentage of the control ([1]; 1 mg/ml): 70%
- decrease in biofilm formation, percentage of the control ([1]; 10 mg/ml): 87%
- decrease in biofilm formation ([2]; 1 mg/ml): 46% and 70%
- decrease in biofilm formation ([2]; 10 mg/ml): 97% and 100%
- decrease in biofilm formation in percentage of the control ([3]; 0.625 mg/ml): 27%
- decrease in biofilm formation in percentage of the control ([3]; 2.5 mg/ml): 40%
- decrease in biofilm formation in percentage of the control ([3]; 5 mg/ml): 53%
- decrease in biofilm formation in percentage of the control ([3]; 10 mg/ml): 70%
- CFU in biofilm on stainless steel coupon ([4]; 1 mg/ml): decrease in biofilm formation; also recorded: significant decrease
- CFU in biofilm on stainless steel coupon ([4]; 10 mg/ml): could not detect any colony forming units; also recorded: no bacteria found in the biofilm
